pIC50: −log10 of the molar value. Read-outs that look alike come from different tables or passages of the source.
Assays:
TRPV1 receptor = TRPV1 receptor (Homo sapiens, UniProt Q8NER1); test: TRPV1 receptor activity; format: cell-based
Procedure: “TRPV1 receptor” refers to the Transient Receptor Potential Vanilloid 1 that has been characterized through molecular cloning and pharmacology. See e.g., Caterina M J, et al., Nature 1997; 389:816-824. TRPV1 receptor activity is measured as described in WO2005/120510, hereby incorporated by reference in its entirety.

[1] = PRK clinical study, plasma pharmacokinetics of compound I (LC-MS/MS); format: in vivo, human
Procedure: Pharmacokinetic (PK) samples were collected at the time points defined in the visit schedule supra, with PK blood collection windows shown in Table 27.
All blood samples (3 mL) were taken from the arm by either direct venipuncture or an indwelling catheter inserted in a forearm vein. After each tube of blood was drawn, it was immediately inverted gently 8-10 times to ensure the mixing of tube contents with anticoagulant (3 mL K2 EDTA). Prolonged sample contact with the rubber stopper was avoided and the tubes were placed upright in a test tube rack surrounded by wet ice until centrifugation.
Within 30 minutes, the sample was centrifuged at about 5° C. for 10 minutes at approximately 2000 G (or the sample was placed on ice and centrifuged at room temperature). Immediately after centrifugation, the whole supernatant (approx. 1.5 mL) was transferred in the first 1.8 mL NUNC 2D barcoded cryovial. After mixing the plasma thoroughly, half of the plasma was transferred from the first cryovial to the second cryovial and the caps were secured. Appropriate PK cryolabels were attached to each cryovial and the labels were secured with clear tape. The cryovials were frozen immediately over dry ice then, kept frozen at ≤−20° C. until shipment to the central lab. The vials were shipped in biweekly batches.
Compound I was quantified in plasma using a validated LC-MS/MS method; the lower limit of quantification (LLOQ) was 0.05 ng/mL. Concentrations were expressed in ng per mL units. When feasible, bandage contact lenses (BCL) exposed to study drug were collected and analyzed for residual drug exposure after treatment (LLOQ: 5.00 ng/mL in 0.55 mL of extraction fluid, or 2.75 ng/BCL). Concentrations below the LLOQ were reported as “zero” and missing data were labeled as such.
The following PK parameters were determined as relevant using the actual recorded sampling times and non-compartmental method with Phoenix™ WinNonlin® (Version 6.4): Cmax, Tmax, AUClast (calculated), Clast and Tlast from the plasma concentration-time data. Pre-dose concentrations were determined by inspection at nominal 0, 24 and 72 hours. The linear trapezoidal rule was used for AUClast calculation. No PK parameters were calculated from the bandage contact lenses compound I concentration data.

[2] = system: postoperative ocular pain in patients undergoing photorefractive keratectomy (PRK) surgery; test: PRK clinical study, oral rescue medication use; format: in vivo, human
Procedure: Rescue medication consisted of oral analgesic (acetaminophen 300 mg+codeine 30 mg) as needed up to a total of 10 tabs/day or 1-2 tabs every 4 hours.
After 36 hours post-operation, the same number of patients took ORM in compound I vs. Vehicle (Table 24).

[3] = system: postoperative ocular pain in patients undergoing photorefractive keratectomy (PRK) surgery; test: PRK clinical study, Ocular Pain Assessment Survey (OPAS); format: in vivo, human
Excerpt: The Ocular Pain Assessment Survey (OPAS) is a quantitative, multidimensional questionnaire, specifically designed for assessment of corneal and ocular surface pain and Quality of Life (QoL) changes. The OPAS assesses pain intensity, frequency of eye and non-eye pain, QoL changes, aggravating factors, associated factors, and symptomatic relief quantitative, allowing for monitoring of treatment responses. See Qazi et al., Ophthalmology July 123(7):1458-1468 (2016).
The OPAS is a validated instrument for quantifying and monitoring corneal and ocular surface pain and quality of life, developed in response to an identified need from a National Eye Institute Workshop in 2010. See Qazi et al., Ophthalmology July 123(7):1458-1468 (2016). The rating scale of the overall pain severity in the OPAS from Qazi et al. rated from 0 (no pain) to 10 (severe pain) or for frequency of symptoms from 0% (never) to 100% (all the time), as per the survey. The patients were asked to fill out the OPAS survey/questionnaire at Day 2, Day 4 (at the end of treatment period with study drug) and Day 8. Statistical analysis of OPAS results was not performed.

[4] = Day 1, plasma, topical ocular 2.5% compound I
[5] = Day 4, plasma, topical ocular 2.5% compound I
[6] = human, plasma, topical, 2.5 %, 4 days

Sequence of TRPV1 receptor (Q8NER1 whole entry): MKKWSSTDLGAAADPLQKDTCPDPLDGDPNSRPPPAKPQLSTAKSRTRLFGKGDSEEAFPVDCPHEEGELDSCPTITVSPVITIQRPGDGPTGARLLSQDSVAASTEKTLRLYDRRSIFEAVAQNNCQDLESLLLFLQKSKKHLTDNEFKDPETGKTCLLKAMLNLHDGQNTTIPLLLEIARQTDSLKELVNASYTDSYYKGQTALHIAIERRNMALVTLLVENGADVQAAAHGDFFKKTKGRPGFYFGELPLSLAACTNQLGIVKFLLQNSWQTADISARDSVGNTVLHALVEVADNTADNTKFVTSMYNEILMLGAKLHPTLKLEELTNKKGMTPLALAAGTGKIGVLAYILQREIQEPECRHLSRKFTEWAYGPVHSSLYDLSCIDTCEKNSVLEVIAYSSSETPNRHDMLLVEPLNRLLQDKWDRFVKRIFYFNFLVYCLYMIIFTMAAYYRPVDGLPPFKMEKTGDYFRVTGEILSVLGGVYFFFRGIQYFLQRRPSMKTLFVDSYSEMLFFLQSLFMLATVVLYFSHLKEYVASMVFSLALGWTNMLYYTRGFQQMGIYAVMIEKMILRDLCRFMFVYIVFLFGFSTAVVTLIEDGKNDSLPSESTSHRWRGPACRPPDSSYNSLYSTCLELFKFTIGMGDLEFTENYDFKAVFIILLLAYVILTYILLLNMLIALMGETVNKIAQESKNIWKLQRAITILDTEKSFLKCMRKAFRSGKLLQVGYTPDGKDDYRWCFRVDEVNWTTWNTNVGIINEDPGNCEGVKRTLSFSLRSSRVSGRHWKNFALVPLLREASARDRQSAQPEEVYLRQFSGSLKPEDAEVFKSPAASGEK

## CC(C)c1nc2cc(O)ccc2c(=O)n1-c1ccc(C#N)cc1 [Compound I, 4-(7-hydroxy-2-isopropyl-4-oxo-4H-quinazolin-3-yl)-benzonitrile]
TRPV1 receptor
  pIC50: 7.52
[1]; [4]
  Median Tlast: 2.00 h
  Tlast (range): 1.95 to 2.05 h
[1]; [5]
  Median Tlast: 2.00 h
  Tlast (range): 1.77 to 2.10 h
[1]; LLOQ 0.05 ng/mL
  Day 1 pre-dose plasma concentrations: below the limit of quantitation
[1]; human, plasma, topical or ocular, 2.5 %, after either single (first dose) or repeated 4 times daily topical ocular administration, read-out: median plasma Tmax
  Tmax: ~30 min
[1]; human, plasma, topical or ocular, 2.5 %, after the first dose (Day 1), unilateral topical ocular 2.5%, read-out: median Tmax, plasma
  Tmax: 27.5 min
[1]; human, plasma, topical or ocular, 2.5 %, max, profile day 1, plasma, topical ocular 2.5% compound I, read-out: AUClast
  AUC(0-t): 1.58 ng·h/mL
[1]; human, plasma, topical or ocular, 2.5 %, max, profile day 1, plasma, topical ocular 2.5% compound I, read-out: Cmax
  Cmax: 1.05 ng/mL
[1]; human, plasma, topical or ocular, 2.5 %, max, profile day 1, plasma, topical ocular 2.5% compound I, read-out: Tmax
  Tmax: 120 min
[1]; human, plasma, topical or ocular, 2.5 %, max, profile day 4, plasma, topical ocular 2.5% compound I, read-out: AUClast
  AUC(0-t): 14.5 ng·h/mL
[1]; human, plasma, topical or ocular, 2.5 %, max, profile day 4, plasma, topical ocular 2.5% compound I, read-out: Cmax
  Cmax: 7.56 ng/mL
[1]; human, plasma, topical or ocular, 2.5 %, max, profile day 4, plasma, topical ocular 2.5% compound I, read-out: Tmax
  Tmax: 125 min
[1]; human, plasma, topical or ocular, 2.5 %, mean, profile day 1 (first dose), plasma, topical ocular 2.5% compound I, PK analysis set, read-out: Cmax
  Cmax: 0.454 ng/mL
[1]; human, plasma, topical or ocular, 2.5 %, mean, profile day 1, plasma, topical ocular 2.5% compound I, read-out: AUClast
  AUC(0-t): 0.638 ng·h/mL
[1]; human, plasma, topical or ocular, 2.5 %, mean, profile day 4 (13th dose, QID), plasma, topical ocular 2.5% compound I, read-out: Cmax
  Cmax: 2.4 ng/mL
[1]; human, plasma, topical or ocular, 2.5 %, mean, profile day 4, plasma, topical ocular 2.5% compound I, read-out: AUClast
  AUC(0-t): 4.38 ng·h/mL
[1]; human, plasma, topical or ocular, 2.5 %, median, profile day 1, plasma, topical ocular 2.5% compound I, read-out: AUClast
  AUC(0-t): 0.569 ng·h/mL
[1]; human, plasma, topical or ocular, 2.5 %, median, profile day 1, plasma, topical ocular 2.5% compound I, read-out: Cmax
  Cmax: 0.375 ng/mL
[1]; human, plasma, topical or ocular, 2.5 %, median, profile day 1, plasma, topical ocular 2.5% compound I, read-out: Tmax
  Tmax: 27.5 min
[1]; human, plasma, topical or ocular, 2.5 %, median, profile day 4, plasma, topical ocular 2.5% compound I, read-out: AUClast
  AUC(0-t): 3.42 ng·h/mL
[1]; human, plasma, topical or ocular, 2.5 %, median, profile day 4, plasma, topical ocular 2.5% compound I, read-out: Cmax
  Cmax: 2.07 ng/mL
[1]; human, plasma, topical or ocular, 2.5 %, median, profile day 4, plasma, topical ocular 2.5% compound I, read-out: Tmax
  Tmax: 28 min
[1]; human, plasma, topical or ocular, 2.5 %, min, profile day 1, plasma, topical ocular 2.5% compound I, read-out: AUClast
  AUC(0-t): 0.261 ng·h/mL
[1]; human, plasma, topical or ocular, 2.5 %, min, profile day 1, plasma, topical ocular 2.5% compound I, read-out: Cmax
  Cmax: 0.195 ng/mL
[1]; human, plasma, topical or ocular, 2.5 %, min, profile day 1, plasma, topical ocular 2.5% compound I, read-out: Tmax
  Tmax: 10 min
[1]; human, plasma, topical or ocular, 2.5 %, min, profile day 4, plasma, topical ocular 2.5% compound I, read-out: AUClast
  AUC(0-t): 1.18 ng·h/mL
[1]; human, plasma, topical or ocular, 2.5 %, min, profile day 4, plasma, topical ocular 2.5% compound I, read-out: Cmax
  Cmax: 0.639 ng/mL
[1]; human, plasma, topical or ocular, 2.5 %, min, profile day 4, plasma, topical ocular 2.5% compound I, read-out: Tmax
  Tmax: 0 min
[1]; human, plasma, topical, 2.5 %, 13th dose on Day 4, read-out: Arithmetic mean plasma Cmax
  Cmax: 2.4 ng/mL
[1]; human, plasma, topical, 2.5 %, 13th dose on Day 4, read-out: mean plasma AUClast
  AUC(0-t): 4.38 ng·h/mL
[1]; [6]
  mean AUClast Day 4 versus Day 1: 6.9 fold
  mean Cmax Day 4 versus Day 1: 5.3 fold
[1]; human, plasma, topical, 2.5 %, across 4 days of repeated QID dosing, read-out: observed plasma Cmax, range
  Cmax: 0.195 to 7.56 ng/mL
[1]; human, plasma, topical, 2.5 %, across 4 days of repeated QID dosing, read-out: plasma AUClast, range
  AUC(0-t): 0.261 to 14.5 ng·h/mL
[1]; human, plasma, topical, 2.5 %, after the 13th dose (Day 4), read-out: median Tmax, plasma
  Tmax: 28 min
[1]; human, plasma, topical, 2.5 %, first dose on Day 1, read-out: Arithmetic mean plasma Cmax
  Cmax: 0.454 ng/mL
[1]; human, plasma, topical, 2.5 %, first dose on Day 1, read-out: mean plasma AUClast
  AUC(0-t): 0.638 ng·h/mL
[1]; human, plasma, topical, 2.5 %, prior to the 5th dose on Day 2 (24 hr post 1st dose), read-out: Trough mean plasma concentration
  concentration at 24 hr: 1.25 ng/mL
[1]; human, plasma, topical, 2.5 %, prior to the 13th dose on Day 4 (72 hr post 1st dose), read-out: Trough mean plasma concentration
  concentration at 72 hr: 1.99 ng/mL
[2]; 0-6 hours post-operatively
  % Change (Compound I-Vehicle)/Vehicle, mg/kg of body weight: −25%
  % Change (Compound I-Vehicle)/Vehicle, number of pills: −25%
  amount of oral rescue medication, Mean (SD): 3.32 (4.684) mg/kg of body weight
[2]; 0-6 hours post-operatively, listed as compound I
  amount of oral rescue medication, Mean (SD): 0.75 (1.032) Number of pills
[2]; 0-12 hours post-operatively
  % Change (Compound I-Vehicle)/Vehicle, mg/kg of body weight: −17%
  % Change (Compound I-Vehicle)/Vehicle, number of pills: −15%
  amount of oral rescue medication, Mean (SD): 6.10 (8.062) mg/kg of body weight
[2]; 0-12 hours post-operatively, listed as compound I
  amount of oral rescue medication, Mean (SD): 1.40 (1.780) Number of pills
[2]; 0-24 hours post-operatively
  % Change (Compound I-Vehicle)/Vehicle, mg/kg of body weight: −18%
  % Change (Compound I-Vehicle)/Vehicle, number of pills: −16%
  amount of oral rescue medication, Mean (SD): 10.17 (12.335) mg/kg of body weight
[2]; 0-24 hours post-operatively, listed as compound I
  amount of oral rescue medication, Mean (SD): 2.35 (2.751) Number of pills
[2]; 0-48 hours post-operatively
  % Change (Compound I-Vehicle)/Vehicle, mg/kg of body weight: −14%
  % Change (Compound I-Vehicle)/Vehicle, number of pills: −13%
  amount of oral rescue medication, Mean (SD): 17.59 (19.850) mg/kg of body weight
[2]; 0-48 hours post-operatively, listed as compound I
  amount of oral rescue medication, Mean (SD): 4.05 (4.466) Number of pills
[2]; 0-72 hours post-operatively
  % Change (Compound I-Vehicle)/Vehicle, mg/kg of body weight: −15%
  % Change (Compound I-Vehicle)/Vehicle, number of pills: −14%
  amount of oral rescue medication, Mean (SD): 18.70 (21.509) mg/kg of body weight
[2]; 0-72 hours post-operatively, listed as compound I
  amount of oral rescue medication, Mean (SD): 4.33 (4.896) Number of pills
[3]; Day 2
  OPAS eye pain intensity during the previous 24 hours (questions 4, 5, 6) versus Vehicle: all 3 answers numerically favored compound I
[3]; human, in vivo
  OPAS how often eye pain with redness, burning, sensitivity to light, tearing (questions 22-25) versus Vehicle: all answers favored compound I

Source: patent US20200390767A1, “Formulations of 4-(7-Hydroxy-2-isopropyl-4-oxo-4H-quinazolin-3-yl)-benzonitrile” (NOVARTIS AG, priority 2019, published 2020)
